Drawing on ChEMBL document CHEMBL1140961, “Synthesis and biological activity of some new benzoxazoles” (2008), this text covers MIC for ten compounds.

In brackets after ≈: the same amount, converted by molar mass.

In general, MIC refers to the lowest concentration found to suppress growth. A higher MIC goes with a less susceptible organism.

Common to all, as to format: functional
The subject of assay [1] is Klebsiella pneumoniae. The assay is described as follows: Antimicrobial activity against Klebsiella pneumoniae after 24 hrs by disk diffusion method. (In general: In agar diffusion tests the substance spreads into inoculated agar from a disc or well.)
The subject of assay [2] is Candida albicans. Nature of the assay: Antimicrobial activity against Candida albicans isolate after 24 to 48 hrs after 24 hrs by disk diffusion method.
Assay [3] has as its system Escherichia coli. Nature of the assay: Antimicrobial activity against Escherichia coli ATCC 25922 after 24 hrs by disk diffusion method.
Assay [4] has as its system Staphylococcus aureus. The assay is described as follows: Antimicrobial activity against Staphylococcus aureus isolate after 24 hrs by disk diffusion method.
The subject of assay [5] is Escherichia coli. Nature of the assay: Antimicrobial activity against Escherichia coli isolate after 24 hrs by disk diffusion method.
Assay [6] deals with Bacillus subtilis. The assay is described as follows: Antimicrobial activity against Bacillus subtilis ATCC 6633 after 24 hrs by disk diffusion method.
Assay [7] deals with Bacillus subtilis. The assay is described as follows: Antimicrobial activity against Bacillus subtilis isolate after 24 hrs by disk diffusion method.
The subject of assay [8] is Klebsiella pneumoniae. Nature of the assay: Antimicrobial activity against Klebsiella pneumoniae RSHM 574 after 24 hrs by disk diffusion method.
Assay [9] concerns Candida albicans. Nature of the assay: Antimicrobial activity against Candida albicans ATCC 10231 after 24 to 48 hrs after 24 hrs by disk diffusion method.
Another assay relates to Pseudomonas aeruginosa. Nature of the assay: Antimicrobial activity against Pseudomonas aeruginosa ATCC […] after 24 hrs by disk diffusion method.
In assay [10] the test system is Staphylococcus aureus. The assay is described as follows: Antimicrobial activity against Staphylococcus aureus ATCC 25923 after 24 hrs by disk diffusion method.

`CCS(=O)(=O)c1ccc2oc(Cc3ccc(Br)cc3)nc2c1`: the MIC worked out at 125 µg/mL (≈ 329 µM) against Klebsiella pneumoniae [1]; 62.5 µg/mL (≈ 164 µM) against Candida albicans [2]; 62.5 µg/mL (≈ 164 µM) in the assay with Escherichia coli [3] (ATCC 25922, 24 h); 125 µg/mL (≈ 329 µM) against Staphylococcus aureus [4]; 125 µg/mL (≈ 329 µM) in the assay on Escherichia coli [5]; 62.5 µg/mL (≈ 164 µM) against Bacillus subtilis [6] (ATCC 6633, 24 h). Besides, the minimal inhibitory concentration (MIC) is 15.6 µg/mL (≈ 41.1 µM) against Bacillus subtilis [7]; 62.5 µg/mL (≈ 164 µM) with Klebsiella pneumoniae [8]; 62.5 µg/mL (≈ 164 µM) with Candida albicans [9]; 62.5 µg/mL (≈ 164 µM) with Pseudomonas aeruginosa (ATCC 25853, 24 h); 125 µg/mL (≈ 329 µM) with Staphylococcus aureus [10] (ATCC 25923, 24 h).
Consider `CCS(=O)(=O)c1ccc2oc(-c3cc(Br)ccc3Cl)nc2c1`, for which the MIC against Klebsiella pneumoniae [1] stood at 125 µg/mL (≈ 312 µM); against Candida albicans [2] it was 62.5 µg/mL (≈ 156 µM); in the assay on Escherichia coli [3] (ATCC 25922, 24 h), 62.5 µg/mL (≈ 156 µM); in the assay on Staphylococcus aureus [4], 125 µg/mL (≈ 312 µM); in the assay with Escherichia coli [5] it was 125 µg/mL (≈ 312 µM); against Bacillus subtilis [6] (ATCC 6633, 24 h), 62.5 µg/mL (≈ 156 µM). For the same compound, the MIC in the assay with Bacillus subtilis [7] is 31.2 µg/mL (≈ 78 µM); against Klebsiella pneumoniae [8], 62.5 µg/mL (≈ 156 µM); with Candida albicans [9] it was 62.5 µg/mL (≈ 156 µM); against Pseudomonas aeruginosa (ATCC 25853, 24 h), 62.5 µg/mL (≈ 156 µM); with Staphylococcus aureus [10] (ATCC 25923, 24 h), 125 µg/mL (≈ 312 µM).
With `CCS(=O)(=O)c1ccc2oc(Cc3ccc(F)cc3)nc2c1`, the MIC against Klebsiella pneumoniae [1] was determined as 125 µg/mL (≈ 391 µM); in the assay on Candida albicans [2], 31.2 µg/mL (≈ 97.9 µM); with Escherichia coli [3] (ATCC 25922, 24 h), 62.5 µg/mL (≈ 196 µM); with Staphylococcus aureus [4] it was 125 µg/mL (≈ 391 µM); in the assay with Escherichia coli [5] it was 125 µg/mL (≈ 391 µM); with Bacillus subtilis [6] (ATCC 6633, 24 h), 62.5 µg/mL (≈ 196 µM). Further, the MIC in the assay with Bacillus subtilis [7] amounted to 31.2 µg/mL (≈ 97.9 µM); with Klebsiella pneumoniae [8] it was 31.2 µg/mL (≈ 97.9 µM); in the assay with Candida albicans [9], 62.5 µg/mL (≈ 196 µM); in the assay with Pseudomonas aeruginosa (ATCC 25853, 24 h), 62.5 µg/mL (≈ 196 µM); with Staphylococcus aureus [10] (ATCC 25923, 24 h), 125 µg/mL (≈ 391 µM).
Turning to `CCS(=O)(=O)c1ccc2oc(-c3ccc(C)cc3)nc2c1`, the MIC is 31.2 µg/mL (≈ 104 µM) against Klebsiella pneumoniae [1]; 31.2 µg/mL (≈ 104 µM) in the assay with Candida albicans [2]; 62.5 µg/mL (≈ 207 µM) with Escherichia coli [3] (ATCC 25922, 24 h); 125 µg/mL (≈ 415 µM) in the assay on Staphylococcus aureus [4]; 62.5 µg/mL (≈ 207 µM) in the assay with Escherichia coli [5]; 31.2 µg/mL (≈ 104 µM) in the assay with Bacillus subtilis [6] (ATCC 6633, 24 h). Also, the MIC with Bacillus subtilis [7] was 31.2 µg/mL (≈ 104 µM); in the assay on Klebsiella pneumoniae [8], 62.5 µg/mL (≈ 207 µM); with Candida albicans [9] it was 125 µg/mL (≈ 415 µM); against Pseudomonas aeruginosa (ATCC 25853, 24 h) it was 62.5 µg/mL (≈ 207 µM); against Staphylococcus aureus [10] (ATCC 25923, 24 h), 125 µg/mL (≈ 415 µM).
In the case of `C[C@@H]1[C@H](O)[C@@H](C)/C=C/C=C/C=C/C=C/C=C/C=C/C=C/[C@H](O[C@@H]2O[C@H](C)[C@@H](O)[C@H](N)[C@@H]2O)C[C@@H]2O[C@](O)(C[C@@H](O)C[C@@H](O)[C@H](O)CC[C@@H](O)C[C@@H](O)CC(=O)O[C@H]1C)C[C@H](O)[C@H]2C(=O)O` [AMPHOTERICIN B], the minimum inhibitory concentration (MIC) against Candida albicans [2] and in the assay on Candida albicans [9] was 1 µg/mL (≈ 1.08 µM) in each case.
As to `CCS(=O)(=O)c1ccc2oc(-c3ccc([N+](=O)[O-])cc3)nc2c1`, the MIC is 125 µg/mL (≈ 376 µM) in the assay on Klebsiella pneumoniae [1]; 62.5 µg/mL (≈ 188 µM) against Candida albicans [2]; 62.5 µg/mL (≈ 188 µM) against Escherichia coli [3] (ATCC 25922, 24 h); 125 µg/mL (≈ 376 µM) against Staphylococcus aureus [4]; 62.5 µg/mL (≈ 188 µM) in the assay with Escherichia coli [5]; 31.2 µg/mL (≈ 94 µM) in the assay on Bacillus subtilis [6] (ATCC 6633, 24 h). In addition, the minimal inhibitory concentration (MIC) came to 15.6 µg/mL (≈ 47 µM) against Bacillus subtilis [7]; 125 µg/mL (≈ 376 µM) in the assay with Klebsiella pneumoniae [8]; 125 µg/mL (≈ 376 µM) in the assay with Candida albicans [9]; 62.5 µg/mL (≈ 188 µM) against Pseudomonas aeruginosa (ATCC 25853, 24 h); 125 µg/mL (≈ 376 µM) against Staphylococcus aureus [10] (ATCC 25923, 24 h).
As to GENTAMICIN SULFATE, the MIC in the assay on Klebsiella pneumoniae [1] was determined as 64 µg/mL; against Escherichia coli [3], 0.5 µg/mL; against Staphylococcus aureus [4], 1020 µg/mL; in the assay with Escherichia coli [5] it was 1 µg/mL; against Bacillus subtilis [6], 1 µg/mL; in the assay on Bacillus subtilis [7], 512 µg/mL. Further, the MIC was 8 µg/mL against Klebsiella pneumoniae [8], 2 µg/mL against Pseudomonas aeruginosa and 0.06 µg/mL in the assay on Staphylococcus aureus [10].
`CCS(=O)(=O)c1ccc2oc(-c3cccc(C)c3C)nc2c1`: the MIC with Klebsiella pneumoniae [1] stood at 125 µg/mL (≈ 396 µM); in the assay on Candida albicans [2], 62.5 µg/mL (≈ 198 µM); with Escherichia coli [3] (ATCC 25922, 24 h) it was 62.5 µg/mL (≈ 198 µM); against Staphylococcus aureus [4], 125 µg/mL (≈ 396 µM); with Escherichia coli [5], 250 µg/mL (≈ 793 µM); against Bacillus subtilis [6] (ATCC 6633, 24 h), 15.6 µg/mL (≈ 49.5 µM). The minimum inhibitory concentration (MIC) against Bacillus subtilis [7] amounted to 31.2 µg/mL (≈ 99.1 µM); with Klebsiella pneumoniae [8] it was 31.2 µg/mL (≈ 99.1 µM); in the assay on Candida albicans [9], 31.2 µg/mL (≈ 99.1 µM); in the assay on Pseudomonas aeruginosa (ATCC 25853, 24 h), 62.5 µg/mL (≈ 198 µM); against Staphylococcus aureus [10] (ATCC 25923, 24 h) it was 125 µg/mL (≈ 396 µM).
Turning to `CCS(=O)(=O)c1ccc2oc(-c3ccc(Cl)cc3)nc2c1`, the MIC amounted to 125 µg/mL (≈ 388 µM) with Klebsiella pneumoniae [1]; 15.6 µg/mL (≈ 48.5 µM) with Candida albicans [2]; 62.5 µg/mL (≈ 194 µM) in the assay on Escherichia coli [3] (ATCC 25922, 24 h); 125 µg/mL (≈ 388 µM) in the assay on Staphylococcus aureus [4]; 62.5 µg/mL (≈ 194 µM) against Escherichia coli [5]; 7.81 µg/mL (≈ 24.3 µM) in the assay with Bacillus subtilis [6] (ATCC 6633, 24 h). In addition, the MIC was 31.2 µg/mL (≈ 97.1 µM) against Bacillus subtilis [7]; 62.5 µg/mL (≈ 194 µM) against Klebsiella pneumoniae [8]; 125 µg/mL (≈ 388 µM) against Candida albicans [9]; 62.5 µg/mL (≈ 194 µM) in the assay on Pseudomonas aeruginosa (ATCC 25853, 24 h); 125 µg/mL (≈ 388 µM) in the assay on Staphylococcus aureus [10] (ATCC 25923, 24 h).
Consider `CC1(C)S[C@@H]2[C@H](NC(=O)[C@H](N)c3ccccc3)C(=O)N2[C@H]1C(=O)O.O.O.O` [AMPICILLIN TRIHYDRATE], for which the minimal inhibitory concentration (MIC) against Klebsiella pneumoniae [1] was 256 µg/mL; against Escherichia coli [3] (ATCC 25922, 24 h), 8 µg/mL; with Staphylococcus aureus [4] it was 2 µg/mL; against Escherichia coli [5] it was 256 µg/mL; with Bacillus subtilis [6] (ATCC 6633, 24 h) it was 0.25 µg/mL; against Bacillus subtilis [7] it was 8 µg/mL. Further, the minimal inhibitory concentration (MIC) against Klebsiella pneumoniae [8] is 2 µg/mL; in the assay on Pseudomonas aeruginosa (ATCC 25853, 24 h) it was 4100 µg/mL; in the assay on Staphylococcus aureus [10] (ATCC 25923, 24 h), 0.03 µg/mL.
